Measurements published in patent US8618175B2, “Ultrasound medical gel composition etherified hydroxyethylcellulose” (Brussels Ventures Corp., priority 2010, dated 2013).

Assay: Spreading ability of solvents, drop on Standard No. 1 filter paper
Assay type: physicochemical
Details: for Drop Diameter After Set period of time 0(h) / Drop Diameter After Set period of time 0.5(h) / Drop Diameter After Set period of time 1(h) / Drop Diameter After Set period of time 8(h): average of 3 trials
Method: The spreading ability of various solvents was measured. Solvents including an antimicrobial agent, as well as solvents without an antimicrobial agent, were tested. Benzalkonium chloride was used as an antimicrobial agent. Spreading ability was measured by dropping one drop of liquid onto Standard No. 1 filter paper, and measuring the diameter of each drop at various time periods. The results are shown below in table 3, and reflect the average results obtained after 3 trials for each sample.

Structure (SMILES) | % Increase in drop diameter after 8 h (antimicrobial agent 0 wt %) | Drop Diameter After Set period of time 0(h) (antimicrobial agent 0 wt %) | Drop Diameter After Set period of time 0.5(h) (antimicrobial agent 0 wt %) | Drop Diameter After Set period of time 1(h) (antimicrobial agent 0 wt %) | Drop Diameter After Set period of time 8(h) (antimicrobial agent 0 wt %) | % Increase in drop diameter after 8 h (benzalkonium chloride 3.2 wt %) | Drop Diameter After Set period of time 0(h) (benzalkonium chloride 3.2 wt %) | Drop Diameter After Set period of time 0.5(h) (benzalkonium chloride 3.2 wt %) | Drop Diameter After Set period of time 1(h) (benzalkonium chloride 3.2 wt %) | Drop Diameter After Set period of time 8(h) (benzalkonium chloride 3.2 wt %)
OCC(O)CO [Glycerin 99%, Glycerin] | 357% | 7.0 | 22.3 | 23.6 | 32.0 | 632% | 4.0 | 22.6 | 24.0 | 29.3
OCCCO [Propanediol (Zemea ™), Propanediol] | 263% | 10.6 | 32 | 33.5 | 38.5 | 249% | 10.6 | 30.3 | 32.3 | 37.0
CC(O)CO (stereo not drawn) [Propylene Glycol] | 120% | 10.0 | 28.0 | 29.0 | 22.0 | 100% | 12.3 | 28.0 | 29.0 | 24.6
